The source made the active and inactive calls. No rule for the calls is given here.

We go through 80 compounds from PubChem BioAssay AID467 (The Scripps Research Institute Molecular Screening Center, 2006).

The assay deals with parental cell line counter screen, S1P1 agonist assay readout. Kind of assay: signal in parental cells, counter-screen for S1P1 agonist project (AID 467).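 Also: agonist potency measured against forskolin stimulation plus an EC20 level of SEW2871.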
Broadly, the EC50 is the concentration at which the effect is half-maximal. For `Cc1ccccc1-c1noc(-c2ccc(O)cc2)n1`, the EC50 is 25 µM (inactive).

On to `CN1c2ccccc2C(C)(C)C12C=Cc1cc(O)ccc1O2` (stereo not given), for which the EC50 was > 10 µM (inactive).

For `O=C(Nc1nc(-c2ccc(Cl)s2)cs1)c1ccncc1`, the EC50 is > 95.1 µM (inactive).

`CCOC(=O)C1CCN(c2ncnc3c2oc2ccccc23)CC1`: the EC50 was 45.1 µM (inactive).

For the compound `Cn1c(=O)oc2cc(S(=O)(=O)N3CCCC(C(=O)N4CC=C(c5ccccc5)CC4)C3)ccc21` (stereo not given), the EC50 is 44.5 µM (inactive).

Take `COc1ccc(-c2nc(-c3ccncc3)no2)cc1OC`: the EC50 was > 95.1 µM (inactive).

`CCC(C)c1ccc2oc(-c3ccc(NC(=O)Cn4cnc5c(=O)n(C)c(=O)n(C)c54)cc3)nc2c1` (stereo not given): the EC50 is > 95.1 µM (inactive).

On to `COC(=O)c1sc(NC(=O)c2ccc(OC)cc2OC)nc1C`, for which the EC50 was > 95.1 µM (inactive).

Consider `CCOc1ccc(C(C)=O)cc1N1C(=O)C2C3C=CC(O3)C2C1=O` (stereo not given), for which the EC50 is 4.31 µM.

In the case of `CC(=O)c1c(C)[nH]c(C(=O)OCCCCN2C(=O)c3ccccc3C2=O)c1C`, the EC50 is > 10 µM (inactive).

As to `CCN(C(=O)c1ccc(C(C)(C)C)cc1)c1nnc(Cn2nnc3ccccc32)s1`, the EC50 was 8.78 µM.

For `N#C/C(=C/c1ccc(N2CCCCCC2)o1)c1ccc(F)cc1`, the EC50 is 4.4 µM.

For the compound `c1ccc(-c2ccc(-c3nc(-c4cccnc4)no3)cc2)cc1`, the EC50 was > 95.1 µM (inactive).

As to `O=C(Nc1ccc(N2CCCCC2)c(Cl)c1)c1ncn[nH]1`, the EC50 is > 95.1 µM (inactive).

On to `Oc1ccc(-c2nnc(-c3ccc(O)cc3)nn2)cc1`, for which the EC50 was > 95.1 µM (inactive).

On to `CCOC(=O)C1CCN(c2ncnc3c2oc2ccc(Cl)cc23)CC1`, for which the EC50 is > 95.1 µM (inactive).

Regarding `CCOc1ccc(Cc2nc(-c3nonc3N)no2)cc1OCC`, the EC50 was > 95.1 µM (inactive).

For the compound `CC(C)C(c1nnnn1Cc1ccccc1)N(Cc1ccco1)Cc1cccs1` (stereo not given), the EC50 was > 95.1 µM (inactive).

For the compound `COc1cccc(-c2csc(N3CCN(CC(=O)Nc4ccc5c(c4)OCO5)CC3)n2)c1`, the EC50 is > 30 µM (inactive).

Regarding `CCCCOc1ncnc2c1[nH]c1ccc(F)cc12`, the EC50 is > 95.1 µM (inactive).

For the compound `C=CCn1c(SCC(=O)c2cccs2)nc2sc(CC)cc2c1=O`, the EC50 was 58.6 µM (inactive).

As for `CCn1c(NC(=O)c2cccc(Cn3cc(Cl)cn3)c2)nc2ccccc21`, the EC50 was > 95.1 µM (inactive).

With `Cc1ccc2[nH]c3c(N4CCN(Cc5ccc6c(c5)OCO6)CC4)ncnc3c2c1`, the EC50 was > 95.1 µM (inactive).

Take `O=c1c(-c2ccc3c(c2)OCCO3)c(C(F)(F)F)oc2cc(O)cc(O)c12`: the EC50 was 18.4 µM (inactive).

`CCC(C)c1ccc2oc(-c3ccc(NC(=O)c4ncn[nH]4)cc3)nc2c1` (stereo not given): the EC50 is > 95.1 µM (inactive).

Take `COc1cccc(-c2nc(-c3ccc(NC(=O)c4cccnc4)cc3)no2)c1`: the EC50 is > 95.1 µM (inactive).

Regarding `CCN=c1sc(C(=O)NCCc2ccccc2)cc(=O)n1CC`, the EC50 was 53.2 µM (inactive).

For the compound `CC(C)COC(=O)NCCOC(=O)Nc1cccc(Cl)c1`, the EC50 is 27.7 µM (inactive).

As for `COCCn1c(C)cc(C(=O)CSc2nc3ccccc3c(=O)[nH]2)c1C`, the EC50 was > 95.1 µM (inactive).

Turning to `CCC(NC(=O)Nc1nnc(C(F)(F)F)s1)(C(F)(F)F)C(F)(F)F`, the EC50 was > 95.1 µM (inactive).

In the case of `O=C(CCc1nc(-c2ccccc2F)no1)Nc1ccc(Oc2ccccc2)cc1`, the EC50 was 6.94 µM.

In the case of `CC(=O)N1C=CN(C(C)=O)C(c2cn(C)c3ccccc23)C1c1cn(C)c2ccccc12` (stereo not given), the EC50 is > 30 µM (inactive).

Take `CCOc1ccc(-c2nc(-c3ccc(OC)cc3)no2)cc1OCC`: the EC50 is > 95.1 µM (inactive).

On to `CC(C)c1ccc(OCc2nc(-c3ccccn3)no2)c(Br)c1`, for which the EC50 is 63 µM (inactive).

Take `Cc1ccc2c(c1)N(CC(=O)Nc1ccc3c(c1)OCCO3)C(=O)CO2`: the EC50 is > 95.1 µM (inactive).

On to `COc1cc(C#CC#CCN2CCCCC2)ccc1O`, for which the EC50 was 63.9 µM (inactive).

In the case of `O=C(Nc1cccc(C(F)(F)F)c1)N1CCC(c2nc(-c3ccc(F)cc3)no2)CC1`, the EC50 was 14.4 µM (inactive).

For the compound `Cc1ccccc1-n1c(SCC(=O)c2cc(C)n(C)c2C)nnc1-c1ccncc1`, the EC50 is > 95.1 µM (inactive).

As to `N/C(=N\c1nc2c(c(=O)[nH]1)CCCC2)Nc1ccccc1`, the EC50 is > 95.1 µM (inactive).

Consider `Cc1cc(C(=O)CN2C(=O)c3ccccc3C2=O)c(C)n1Cc1cccs1`, for which the EC50 was > 95.1 µM (inactive).

As to `CCCn1c(NC(=O)c2cccc(S(=O)(=O)N3CCCC3)c2)nc2ccccc21`, the EC50 was 10.4 µM (inactive).

Turning to `O=C(C1CC1)N1CCc2cc(S(=O)(=O)NCC3COc4ccccc4O3)ccc21` (stereo not given), the EC50 is > 30 µM (inactive).

`CN(C)CC(C(=O)c1ccccc1)c1ccccc1` (stereo not given): the EC50 is 3.58 µM.

Consider `CNc1oc(-c2ccc(OCc3ccccc3)cc2)nc1C#N`, for which the EC50 is > 95.1 µM (inactive).

For `CCOC(=O)c1ccc(NC(=O)CCc2nc(-c3ccc(Cl)cc3)no2)cc1`, the EC50 was > 95.1 µM (inactive).

As to `COC(=O)c1ccc(CSc2nc3ccccc3c(=O)n2Cc2ccco2)o1`, the EC50 is > 95.1 µM (inactive).

For `CCN(C(=O)C1CCCCC1)c1nnc(-c2cccnc2)s1`, the EC50 is > 95.1 µM (inactive).

`Cc1ccc(C(=O)Nc2nc(COc3ccccc3)cs2)s1`: the EC50 was 28.9 µM (inactive).

Turning to `CCN=c1scc(-c2ccc3c(c2)NC(=O)CO3)n1N=C1CCCC1`, the EC50 was > 30 µM (inactive).

Regarding `COC(=O)c1cc(CSc2nnc(-c3ccccc3)c(-c3ccccc3)n2)oc1C`, the EC50 was > 95.1 µM (inactive).

Consider `COCC(=O)Nc1cccc(C(F)(F)F)c1`, for which the EC50 is > 95.1 µM (inactive).

Regarding `O=C(Nc1ccc(OC(F)F)c(Cl)c1)Nc1ccc2c(c1)OCO2`, the EC50 is > 10 µM (inactive).

As for `CC(C)Cc1cc(C(=O)Nc2cc(Br)ccc2O)no1`, the EC50 was > 10 µM (inactive).

As for `CCCc1cc(C(=O)Nc2sc(C)c(CC)c2C#N)no1`, the EC50 is > 95.1 µM (inactive).

As for `Cc1cccc(-c2nc(CSCC(=O)N3CCN(c4ccccn4)CC3)c(C)o2)c1`, the EC50 was 31 µM (inactive).

As to `O=C(Nc1ccc(N2CCOCC2)c(Cl)c1)c1cccc(F)c1`, the EC50 was > 95.1 µM (inactive).

In the case of `O=S(=O)(NCc1cn2ccsc2n1)c1ccc(Oc2ccccc2)cc1`, the EC50 is 45.3 µM (inactive).

As for `CCc1c(C)sc(NC(=O)c2cc(-c3ccco3)on2)c1C#N`, the EC50 is > 95.1 µM (inactive).

With `CCCc1ccc(Oc2cn[nH]c2-c2ccc(O)c(C)c2O)cc1`, the EC50 was > 10 µM (inactive).

`Cc1ccc2c(c1)[nH]c1c(N3CCN(Cc4ccccc4)CC3)ncnc12`: the EC50 was 7.72 µM.

Take `COc1ccc2c(c1)-c1nc(NC(=O)c3cccs3)sc1CC2`: the EC50 is 16.2 µM (inactive).

As for `Clc1ccccc1C1=Nn2c(nnc2-c2ccncc2)SC1`, the EC50 was 13.9 µM (inactive).

With `Oc1ccc(C2NCc3ccccc3-n3cccc32)cc1Cl` (stereo not given), the EC50 was > 30 µM (inactive).

For `Fc1ccc2[nH]c3c(N4CCN(Cc5ccc6c(c5)OCO6)CC4)ncnc3c2c1`, the EC50 was 8.16 µM.

On to `O=S1(=O)Nc2c(ccc3cccnc23)-c2ccccc21`, for which the EC50 was > 95.1 µM (inactive).

For the compound `COc1ccc(-c2cc(C(=O)NC3CCCC3)no2)cc1OC`, the EC50 was > 95.1 µM (inactive).

On to `c1ccc(CN2CCN(c3ncnc4c3[nH]c3ccccc34)CC2)cc1`, for which the EC50 is 12.1 µM (inactive).

Consider `Cc1ccc2nc(NC(=O)CSc3nc4c(c(=O)n3C)SC(C)C4)sc2c1` (stereo not given), for which the EC50 is > 95.1 µM (inactive).

Regarding `CCN(CC)C(=O)Oc1ccc2c(=O)c(-c3ccc(OC)cc3)coc2c1`, the EC50 was > 95.1 µM (inactive).

Take `CCOc1ccc(-c2noc(-c3ccncc3)n2)cc1OCC`: the EC50 was > 95.1 µM (inactive).

Take `c1csc(CCNc2ncnc3sc4c(c23)CCC4)c1`: the EC50 is 20.3 µM (inactive).

For `O=C(CCN1CCc2ccccc2CC1)c1ccc2c(c1)OCCO2`, the half-maximal effective concentration (EC50) is 4.84 µM.

Regarding `Cc1noc(/C=C/N(C)C)c1S(=O)(=O)N1CCc2ccccc21`, the EC50 was > 95.1 µM (inactive).

Regarding `COc1ccc(-c2nc3cc(NC(=O)Cc4ccc(OC)c(OC)c4)ccc3o2)cc1`, the EC50 was > 10 µM (inactive).

Consider `COc1ccc(OCCCSc2ncccn2)cc1`, for which the EC50 was > 95.1 µM (inactive).

Regarding `c1ccc2c(c1)oc1c(N3CCN(Cc4ccc5c(c4)OCO5)CC3)ncnc12`, the EC50 is 21.3 µM (inactive).

Turning to `COc1ccc(-c2noc(-c3cc(C)cc(C)c3)n2)cc1OC`, the EC50 was > 95.1 µM (inactive).

Turning to `Cc1ccc(-c2csc(N3CCC(NS(=O)(=O)c4ccc5c(c4)OCCO5)CC3)n2)cc1`, the EC50 is 5.75 µM.

As to `COc1ccc(-c2cn3c(C)c(C(=O)Nc4ccncc4)sc3n2)cc1`, the EC50 was > 95.1 µM (inactive).

Take `Cc1n[nH]c(C)c1N1C(=O)c2cccc3c(N4CCCCCC4)ccc(c23)C1=O`: the EC50 is 37 µM (inactive).
